According to patent US6960456B1, “Method for preparing conjugated linoleic acid” (Valio Ltd., priority 1999, dated 2005):

Tests used:
[1] = tested on: Propionibacterium freudenreichii ssp. shermanii JS (PJS); assay: Growth of PJS strain in MRS medium containing linoleic acid (turbidity, Klett meter); type: cell-based; conditions: for Growth (cell density of the culture as turbidity, Klett meter): 600 μg/ml linoleic acid, 30° C.
Protocol: (§1) As controls were used the same medium without addition (positive growth control) and a medium to which only detergent was added. For the test, the propionic acid bacterium strains Propionibacterium freudenreichii ssp. shermanii JS (PJS), DSM 7067, and P. freudenreichii ssp. freudenreichii 131 ([…]) were first cultivated in MRS broths with • 1) no addition • 2) 600 μg/ml linoleic acid • 3) addition of 600 μg/ml linoleic acid from a stock solution containing 5 mg/ml linoleic acid and 1% of Tween 80 preparation in an aqueous solution (final content of Tween […]) • 4) addition of 0.9% of Kotilen and 600 μg/ml linoleic acid micellized according to Example 1 • 5) addition of 0.9% of Kotilen only (not linoleic acid) Each bacterium strain was cultivated in the culture medium twice at 30° C. for 72 h, whereafter each test broth was inoculated with 1% of fresh culture. The test cultures were monitored at 30° C. for 4 days by determining the cell density of the culture as turbidity with a Klett meter. At the end of cultivation (96 h), the amount of formed CLA was determined by gas chromatography, the c9,t11 isomer separately and the other isomers together.

[2] = tested on: P. freudenreichii ssp. freudenreichii 131 (P131); assay: Growth of P131 strain in MRS medium containing linoleic acid (turbidity, Klett meter); type: cell-based, Propionibacterium freudenreichii ssp. freudenreichii; conditions: for Growth (cell density of the culture as turbidity, Klett meter): 600 μg/ml linoleic acid, 30° C.
Protocol: as §1

PJS cells = assay: Viable cell concentration in pH-adjusted fermentor culturing of PJS cells with micellized linoleic acid; type: cell-based, Propionibacterium freudenreichii ssp. shermanii
Protocol: The most efficient way to cultivate propionic acid bacteria on an industrial scale is to do it in a fermentor where the pH of the medium can be maintained optimal for cellular growth. A production process of conjugated linoleic acid by means of growing PJS cells was examined in fermentor cultures the solution volume being 2 liters. The whey permeate broth of Example 2 was used as growth medium. The growth broth contained micellized linoleic acid 400, 600, 1000 or 1400 μg/ml and Kotilen detergent 0.6, 0.9 or 1.5%, respectively. During the cultivation, the pH of the growth medium was maintained at 6.3 with linoleic acid concentrations of 400, 600 and 1000 μg/ml and at 6.5 with linoleic acid concentration of 1400 μg/ml by means of an automatic addition of ammonium solution. The cultivation temperature was 30° C. and the mixing rate was 100 rpm. The concentration of viable propionic acid bacteria cells was determined in buffered sodium lactate agar and the agar dishes were incubated at 30° C. anaerobically for 5 to 7 days. Table 3 compares the CLA production process in a fermentor, with the linoleic acid content in the medium of 400, 600 and 1000 μg/ml, after 94 hour cultivation, and that of 1400 μg/ml, after 108 and 132 hour cultivation.

breast cancer = conditions: cited from earlier work
propionic acid bacteria = conditions: even in relatively low concentrations; cited from earlier work
[3] = tested on: mammary, stomach and colon cancer; conditions: CLA-containing diet, compared with the reference group; cited from earlier work
cancer cells = conditions: tissue cultures of human cells; cited from earlier work
[4] = tested on: high density lipoprotein (HDL); conditions: rabbit, in vivo; cited from earlier work
fatty tissues = conditions: mouse, in vivo; cited from earlier work

## CCCCC/C=C\C/C=C\CCCCCCCC(=O)O [LA, cis-9,trans-12 octadecadienoic acid]
[1]; 600 μg/ml
  Effect on growth as compared with the control (in words): inhibited the growth
[1]; 0 h
  Growth (cell density of the culture as turbidity, Klett meter): 78
[1]; 24 h
  Growth (cell density of the culture as turbidity, Klett meter): 84
[1]; 48 h
  Growth (cell density of the culture as turbidity, Klett meter): 96
[1]; 72 h
  Growth (cell density of the culture as turbidity, Klett meter): 106
[1]; 96 h
  Growth (cell density of the culture as turbidity, Klett meter): 110
[2]; 600 μg/ml
  Effect on growth as compared with the control (in words): inhibited the growth
[2]; 0 h
  Growth (cell density of the culture as turbidity, Klett meter): 80
[2]; 24 h
  Growth (cell density of the culture as turbidity, Klett meter): 90
[2]; 48 h
  Growth (cell density of the culture as turbidity, Klett meter): 97
[2]; 72 h
  Growth (cell density of the culture as turbidity, Klett meter): 107
[2]; 96 h
  Growth (cell density of the culture as turbidity, Klett meter): 115
PJS cells; micellized LA 400 μg/ml, deterg. (Kotilen) 0.6%, 94 h, pH 6.3, 30° C.
  cell concentration (cfu/ml): 1.3 × 10^10 cfu/ml
PJS cells; micellized LA 600 μg/ml, deterg. (Kotilen) 0.9%, 94 h, pH 6.3, 30° C.
  cell concentration (cfu/ml): 1.2 × 10^10 cfu/ml
PJS cells; micellized LA 1000 μg/ml, deterg. (Kotilen) 1.5%, 94 h, pH 6.3, 30° C.
  cell concentration (cfu/ml): 1.4 × 10^10 cfu/ml
PJS cells; micellized LA 1400 μg/ml, deterg. (Kotilen) 1.5%, 108 h, pH 6.5, 30° C.
  cell concentration (cfu/ml): 2.4 × 10^9 cfu/ml
PJS cells; micellized LA 1400 μg/ml, deterg. (Kotilen) 1.5%, 132 h, pH 6.5, 30° C.
  cell concentration (cfu/ml): 1.3 × 10^10 cfu/ml
Breast cancer
  effect on breast cancer: stimulating effect
Propionic acid bacteria
  effect on the growth of propionic acid bacteria: inhibitory effect

## conjugated linoleic acid [CLA]
[3]
  number of mammary, stomach and colon cancer incidences: reduced
Cancer cells
  development of cancer cells: capable of inhibiting development of cancer cells
[4]
  amount of the good high density lipoprotein (HDL): does not reduce
Fatty tissues
  effect on fatty tissues: split fatty tissues
